Experimental data: patent publication US12595248B2, “PRMT5 inhibitors” (Merck Sharp & Dohme LLC, priority 2019, dated 2026)
Where two headings read alike, the source gives them in different places.

Key:
[1] = molecular target: T1, PRMT5-MEP50 enzyme complex (Homo sapiens, UniProt O14744); test: PRMT5-MEP50 Enzyme Methylation Assay (Version B); format: biochemical
T1 construct: Full-length (FL)-PRMT5-MEP50 enzyme complex (recombinant proteins from baculovirus-transfected Sf21 cells: FL-PRMT5; MW=73837 kDa and FL-MEP50; MW=38614); made in house; host or cells: baculovirus-transfected Sf21 cells
T1 sequence (O14744 whole entry): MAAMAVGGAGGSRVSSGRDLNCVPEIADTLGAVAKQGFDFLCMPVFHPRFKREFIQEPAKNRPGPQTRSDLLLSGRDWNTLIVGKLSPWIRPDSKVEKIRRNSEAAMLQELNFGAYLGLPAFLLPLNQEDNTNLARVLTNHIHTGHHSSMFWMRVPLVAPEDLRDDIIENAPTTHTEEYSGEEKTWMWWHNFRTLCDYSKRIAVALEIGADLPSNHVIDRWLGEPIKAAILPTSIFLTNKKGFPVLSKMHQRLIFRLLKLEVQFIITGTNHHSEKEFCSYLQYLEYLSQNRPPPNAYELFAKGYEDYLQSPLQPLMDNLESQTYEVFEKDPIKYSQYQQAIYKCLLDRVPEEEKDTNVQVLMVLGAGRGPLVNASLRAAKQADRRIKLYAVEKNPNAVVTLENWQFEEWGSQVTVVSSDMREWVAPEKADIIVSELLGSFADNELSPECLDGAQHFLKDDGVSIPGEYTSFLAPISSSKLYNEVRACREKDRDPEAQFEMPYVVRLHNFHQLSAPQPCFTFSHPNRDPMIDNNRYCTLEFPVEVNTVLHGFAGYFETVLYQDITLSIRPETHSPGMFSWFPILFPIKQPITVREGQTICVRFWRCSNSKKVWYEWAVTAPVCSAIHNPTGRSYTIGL
T1 sequence (Q9BQA1 whole entry partner): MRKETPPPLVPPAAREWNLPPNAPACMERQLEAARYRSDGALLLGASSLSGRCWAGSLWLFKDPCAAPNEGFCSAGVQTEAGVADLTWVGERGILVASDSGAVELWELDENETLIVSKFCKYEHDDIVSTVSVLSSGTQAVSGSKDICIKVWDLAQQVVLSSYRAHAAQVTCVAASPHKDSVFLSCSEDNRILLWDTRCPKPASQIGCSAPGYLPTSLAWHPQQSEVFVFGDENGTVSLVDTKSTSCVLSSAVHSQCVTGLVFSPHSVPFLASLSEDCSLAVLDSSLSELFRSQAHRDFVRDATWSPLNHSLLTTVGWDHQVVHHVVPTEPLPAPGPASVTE
Procedure: PRMT5-MEP50 Enzyme Methylation Assay (Version B)
PRMT5-MEP50 biochemical assay is a direct measurement of the methylation activity of the enzyme complex on a short peptide substrate derived from the N-terminus of H4 histone. Methylation experiment was performed with recombinant PRMT5-MEP50 protein complex. The assessment of inhibitory effect (EC50) of small molecules was measured by the effectiveness of the compounds to inhibit this reaction.
In this assay, the potency (EC50) of each compound was determined from a twenty-point (1:2 serial dilution; top compound concentration of 100000 nM) titration curve using the following outlined procedure. To each well of a white ProxiPlus 384 well-plate, 100 nL of compound (1% DMSO in final assay volume of 10 μL) was dispensed, followed by the addition of 8 μL of 1× assay buffer (50 mM Bicine pH 8.0, 1 mM DTT, 0.004% Tween20, 0.01% BSA) containing 0.625 nM of Full-length (FL)-PRMT5-MEP50 enzyme complex (recombinant proteins from baculovirus-transfected Sf21 cells: FL-PRMT5; MW=[…] and FL-MEP50; MW=38614). Plates were sealed and placed in a 37° C. humidified chamber for 30 minutes pre-incubation with compounds. Subsequently, each reaction was initiated by the addition of 2 μL 1× assay buffer containing 375 nM biotinylated H4R3 (MeI) peptide, and 75 μM S-(5′-Adenosyl)-L-Methionine Chloride (SAM). The final reaction in each well of 10 μL consists of 0.5 nM PRMT5-MEP50, 75 nM biotinylated-peptide, and 15 μM SAM. Methylation reactions were allowed to proceed for 150 minutes in a sealed plate at 37° C. Reactions were immediately quenched by the addition of 1 μL of 10% formic acid. Plates were then frozen and shipped to SAMDI™ Tech Inc. to determine the percent conversion from […]. Dose-response curves were generated by plotting percent effect (% product conversion; Y-axis) vs. Log 10 compound concentrations (X-axis). EC50 values were determined by non-linear regression according to models for either sigmoidal (4 parameters) or biphasic (7 parameters) dose-response curves.

PRMT5 = molecular target: T2, PRMT5 (Homo sapiens, UniProt O14744); test: PRMT5 Cell Target Engagement (TE) Assay; format: cell-based; settings: MCF-7 cells, treated for 3 days, symmetric dimethylation of arginine (SDMA) by high content imaging
T2 construct: seeded with 4000 MCF-7 cells in 30 μl media; endogenous in cells; host or cells: MCF-7 cells
T2 sequence (O14744 whole entry): as the sequence (O14744 whole entry) above
T2 sequence (Q9BQA1 whole entry partner): as the sequence (Q9BQA1 whole entry partner) above
From the text: PRMT5 Cell Target Engagement (TE) Assay
The PRMT5 TE assay is a biomarker assay for identifying compounds that inhibit symmetric dimethylation of arginine (SDMA) of PRMT5 substrates. The following substrates have been reported for PRMT5: histone H2A and H4 R3, Histone H3 R2, Histone H3 R8, spliceosome Sm proteins, ribosomal protein RPS10, p53, FEN1, nucleoplasmin, nucleolin, EGFR and EBNA. The assay focuses on detecting symmetrically dimethylated nuclear proteins using high content imaging technology. Detection of the expression of symmetrically dimethylated nuclear proteins is through a mixture of primary rabbit monoclonal antibodies to SDMA (CST 13222), which in turn recognized by an Alexafluor 488 dye-conjugated anti-rabbit IgG secondary antibody. The IN Cell Analyzer 2200 or Opera-Phenix measures nuclear Alexafluor 488 fluorescent dye intensity that is directly related to the level of expression of symmetrically dimethylated nuclear proteins at the single cell level. Nuclear AF488 dye intensities are compared to the mean value for DMSO treated cells (MIN) to report percent of inhibition for each compound-treated well.
In this assay, the cell potency (EC50) of each compound was determined from a ten point (1:3 serial dilution; top compound concentration of 10000 nM) titration curve using the following outlined procedure. Each well of a BD falcon collagen coated black/clear bottom 384-well plate was seeded with 4000 MCF-7 cells in 30 μl media and allowed to attach for 5 h. Media is ATCC-formulated Eagle's Minimum Essential Medium, Catalog No. 30-2003. To make the complete growth medium, the following components were added to the base medium: 0.01 mg/mL human recombinant insulin; fetal bovine serum to a final concentration of 10%. Additional 30 μl of media containing 2× compounds were added to each well. Cells were treated for 3 days in 37° C. CO2 incubator. On day 3, cells were fixed with Cytofix, permeabilized with 0.4% Triton-X-100/Cytofix, and washed with D-PBS without Ca/Mg. Cells were blocked with Licor Odessey blocking reagent for 1 h at room temperature, followed by incubation with anti-SDMA (1:1000) antibody at 4° C. overnight. 1° antibody was removed, followed by three washings with DPBS without Ca/Mg and 0.05% Tween20. Hoechst (5 μg/mL), Cell Mask deep stain (1:2000) and Alexa488-conjugated goat anti-rabbit IgG (2 μg/mL) was added for 1 h at room temperature. A final washing step (three washes) was performed before sealing plate for imaging on In Cell Analyzer 2200 or Opera-Phenix. Images from analyzer were uploaded to Columbus (at WP or BOS) for image analysis. IC50 values were determined by 4 parameters robust fit of percent fluorescence units vs. (Log10) compound concentrations.

[2] = first of two EC50s: 7 parameters biphasic model, read-out: Enzyme Methylation Assay Version B (EC50_1)
[3] = second of two EC50s: 7 parameters biphasic model, read-out: Enzyme Methylation Assay Version B (EC50_2)
[4] = only one EC50 shown: 4 parameters single site sigmoidal model, 30 min pre-incubation, read-out: Enzyme Methylation Assay Version B (EC50)

SMILES | EC50 [1, 2] | EC50 [1, 3] | EC50 (PRMT5) | EC50 [1, 4]
CC(=O)N1CCC(Nc2cc(C(=O)N3CC[C@@H](N4CCc5ccccc5C4)[C@H](O)C3)c(F)cn2)CC1 [Example 3, 1-(4-((4-((3R,4R)-4-(3,4-dihydroisoquinolin-2(1H)-yl)-3-hydroxypiperidine-l-carbonyl)-5-fluoropyridin-2-yl)amino)piperidin-l-yl)ethan-l-one] | ~75 nM | 37600 nM | 3090 nM | 
CC(=O)N1CCC(Nc2nccc(C(=O)N3CC[C@H](N4CCc5ccccc5C4)[C@@H](O)C3)c2F)C(F)(F)C1 (single isomer, unassigned) [Example 14] | ~20 nM | 17200 nM | 275 nM | 
CC(=O)N1CCC(Nc2cc(C(=O)N3CC[C@H](N4CCc5ccccc5C4)[C@@H](O)C3)ccn2)C(F)(F)C1 (single isomer, unassigned) [Example 6] | 4.8 nM | 2690 nM | 24 nM | 
CC1(C)OC(=O)Nc2cc(C(=O)N3CC[C@@H](N4CCc5ccccc5C4)[C@H](O)C3)ccc21 [Example 98, 7-((3R,4R)-4-(3,4-dihydroisoquinolin-2(1H)-yl)-3-hydroxypiperidine-1-carbonyl)-4,4-dimethyl-1,4-dihydro-2H-benzo[d][1,3]oxazin-2-one] | ~118 nM | > 100000 nM | 5830 nM | 
Cc1ccc2c(c1)CCN([C@@H]1CCN(C(=O)c3ccc(OCC(F)(F)F)nc3)C[C@H]1O)C2 [Example 5, ((3R,4R)-3-hydroxy-4-(6-methyl-3,4-dihydroisoquinolin-2(1H)-yl)piperidin-1-yl)(6-(2,2,2-trifluoroethoxy)pyridin-3-yl)methanone] |  |  | > 10000 nM | 1410 nM
Cc1ccc2c(c1)CN(C1CCN(C(=O)c3ccc(OCC(F)(F)F)nc3)CC1O)CC2 (single isomer, unassigned) [Example 47, ((3R,4R or 3S,4S)-3-hydroxy-4-(7-methyl-3,4-dihydroisoquinolin-2(1H)-yl)piperidin-1-yl)(6-(2,2,2-trifluoroethoxy)pyridin-3-yl)methanone] |  |  | > 10000 nM | 1180 nM
CC(=O)N1CCC(Nc2nccc(C(=O)N3CC[C@@H](N4CCc5ccccc5C4)[C@H](O)C3)c2F)C(F)(F)C1 (single isomer, unassigned) [Example 17] | ~191 nM | > 100000 nM | 8420 nM | 
CC(=O)N1CCC(Nc2cc(C(=O)N3CCC(N4Cc5ccccc5C(F)(F)C4)C(O)C3)c(F)cn2)CC1 (single isomer, unassigned) [Example 24, 1-(4-((4-(-4-(4,4-difluoro-3,4-dihydroisoquinolin-2(1H)-yl)-3-hydroxypiperidine-1-carbonyl)-5-fluoropyridin-2-yl)amino)piperidin-1-yl)ethan-1-one] |  |  | > 10000 nM | 5560 nM
COc1cnc(NC2CCN(C(C)=O)CC2)cc1C(=O)N1CC[C@H](N2CCc3ccccc3C2)[C@@H](O)C1 [Example 88, 1-(4-((4-((3S,4S)-4-(3,4-dihydroisoquinolin-2(1H)-yl)-3-hydroxypiperidine-1-carbonyl)-5-methoxypyridin-2-yl)amino)piperidin-1-yl)ethan-1-one] | 9.3 nM | 2040 nM | 14 nM | 
O=C(c1ccc(C(=O)N2C3CCC2COC3)cc1)N1CC[C@@H](N2CCc3c(F)cccc3C2)[C@H](O)C1 [Example 38, (4-(3-oxa-8-azabicyclo[3.2.1]octane-8-carbonyl)phenyl)((3R,4R)-4-(5-fluoro-3,4-dihydroisoquinolin-2(1H)-yl)-3-hydroxypiperidin-1-yl)methanone] | ~402 nM | > 100000 nM | > 10000 nM | 
CC(C)(C#N)c1ccc(C(=O)N2CC[C@@H](N3CCc4ccccc4C3)[C@H](O)C2)cn1 (single isomer, unassigned) [Example 90] |  |  | > 10000 nM | 1540 nM
CC1OC(=O)Nc2cc(C(=O)N3CC[C@@H](N4CCc5ccccc5C4)[C@H](O)C3)ccc21 (single isomer, unassigned) [Example 93] | ~18 nM | 11800 nM | 182 nM | 
CC1OC(=O)Nc2cc(C(=O)N3CC[C@H](N4CCc5ccccc5C4)[C@@H](O)C3)ccc21 (single isomer, unassigned) [Example 94] | ~291 nM | > 100000 nM | 4560 nM | 
O=C(c1ccc(C(=O)N2C3CCC2COC3)cc1)N1CC[C@@H](N2CCc3cc(F)ccc3C2)[C@H](O)C1 [Example 40, (4-(3-oxa-8-azabicyclo[3.2.1]octane-8-carbonyl)phenyl)((3R,4R)-4-(6-fluoro-3,4-dihydroisoquinolin-2(1H)-yl)-3-hydroxypiperidin-1-yl)methanone] | 45100 nM | > 100000 nM | > 10000 nM | 
CCOc1cc(C(=O)N2C3CCC2COC3)ccc1C(=O)N1CC[C@H](N2CCc3ccccc3C2)[C@@H](O)C1 [Example 33] | 23 nM | 4650 nM | 27 nM | 
CC(=O)N1CCC(Nc2cc(C(=O)N3CC[C@H](N4CCc5ccccc5C4)[C@@H](O)C3)c(F)cn2)C(F)(F)C1 (single isomer, unassigned) [Example 86] | 5.3 nM | 3760 nM | 4.4 nM | 
O=C(c1ccc(-c2ncnn2C2CC2)cc1)N1CC[C@H](N2CCc3ccccc3C2)[C@@H](O)C1 [Example 60, (4-(1-cyclopropyl-1H-1,2,4-triazol-5-yl)phenyl)((3S,4S)-4-(3,4-dihydroisoquinolin-2(1H)-yl)-3-hydroxypiperidin-1-yl)methanone] | 14 nM | 4680 nM | 435 nM | 
CC(=O)N1CCC(Nc2cc(C(=O)N3C[C@H]4C[C@@H]3C(O)C4N3CCc4ccccc4C3)c(F)cn2)CC1 (single isomer, unassigned) [Example 30] |  |  | > 10000 nM | 4830 nM
O=C(c1ccc(C(=O)N2C3CCC2COC3)cc1)N1CC[C@H](N2CCc3ccccc3C2)[C@@H](O)C1 [Example 35] | 6.6 nM | 2580 nM | 68 nM | 
O=C(c1ccc(OCC(F)(F)F)nc1)N1CC[C@@H](N2CCc3ccccc3C2)[C@H](O)C1 [Example 44, ((3R,4R)-4-(3,4-dihydroisoquinolin-2(1H)-yl)-3-hydroxypiperidin-1-yl)(6-(2,2,2-trifluoroethoxy)pyridin-3-yl)methanone] | ~312 nM | > 100000 nM | > 10000 nM | 
